Source: patent US20040167061A1, “Substantially homogeneous bio-affecting material having a pre-determined ratio of bioaffecting component to cell targeting component, the method for making such a material and the method of its use” (priority 2003, published 2004)

Key:
NADH-oxidase = conditions: plasma membrane redox enzyme; cited from earlier work
[1] = tested on: leukemic cells in peripheral blood; conditions: cited from earlier work
human mesothelioma cells = conditions: nude mice with (drug-resistant) human mesothelioma cells; compared to animals treated only with doxorubicin; cited from earlier work
[2] = tested on: metastatic lesions from a sarcoma; conditions: treatment begun August 2000
advanced ovarian cancer = test: unpublished randomized clinical study in advanced ovarian cancer; format: in vivo, human; conditions: equivalent to 1 mg doxorubicin per day on days 15 through 19 of monthly cycles; time between diagnosis and randomization 18 months
Description: There is an unpublished clinical study of 23 patients with advanced ovarian cancer who were randomized into test (12 patients) and placebo (11 patients) groups. The test group received transferrin-doxorubicin conjugates equivalent to 1 mg doxorubicin per day on days 15 through 19 of monthly treatment cycles.

[3] = tested on: multi-drug resistant cells; conditions: cited from earlier work

| Compound | inhibition of NADH-oxidase (NADH-oxidase) | decrease of number of leukemic cells in peripheral blood ([1]; 7 patients, 1 mg/day iv for 5 days, within 10-days following therapy) | extension of disease ([1]; bone marrow biopsies before and after treatment) | toxic effects ([1]; seven acute leukemia patients, 1 mg/day intravenously for 5 days) | survival (prolonging life) (human mesothelioma cells) | radiological evidence of tumor ([2]; by January) | metastatic lesions in the lungs ([2]; by November) | Cox regression estimates of survival rates, test versus placebo (advanced ovarian cancer) | killing of multi-drug resistant cells [3] |
| --- | --- | --- | --- | --- | --- | --- | --- | --- | --- |
| COc1cccc2c1C(=O)c1c(O)c3c(c(O)c1C2=O)C[C@@](O)(C(=O)CO)C[C@@H]3O[C@H]1C[C@H](N)[C@H](O)[C@H](C)O1 [doxorubicin] | efficient inhibitor |  |  |  |  |  |  |  |  |
| glutaraldehyde-prepared transferrin-doxorubicin conjugates |  | 86% | no extension of disease | no toxic effects | significantly prolonging life |  |  |  |  |
| transferrin-doxorubicin conjugates | inhibit |  |  |  |  | no radiological evidence of tumor | substantially cleared of metastatic lesions | significant difference | effectively kill |
